Data from US6528618B1, “Anti-inflammatory peptides derived from C-reactive protein” (Yeda Research and Development Co. Ltd., priority 1997, dated 2003).
Where a SMILES comes first, the peptide text is derived from it.

Molecular target: T1, human leukocyte elastase (hLE) (Homo sapiens, UniProt P08246)
T1 construct: Neutrophils (1.4 billion) were isolated from whole blood obtained from a single healthy laboratory donor; from tissue; host or cells: neutrophils from whole blood of a single healthy donor
T1 sequence (P08246 30-247 limits assumed): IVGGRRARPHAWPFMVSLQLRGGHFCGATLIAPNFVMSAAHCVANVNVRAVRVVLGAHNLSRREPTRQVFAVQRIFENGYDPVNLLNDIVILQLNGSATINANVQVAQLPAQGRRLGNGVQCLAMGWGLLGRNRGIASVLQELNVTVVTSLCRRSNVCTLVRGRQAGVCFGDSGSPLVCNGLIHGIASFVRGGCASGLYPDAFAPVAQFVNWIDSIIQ
Assay: In vitro inhibition of hLE (cleavage of MeOSuc-AAPV-NA)
Format: biochemical
Conditions: for Ki: hLE Ki [μM], Table 2, substrate MeOSuc-AAPV-NA 200 μM, pH 7.4, 37 C; for fold decrease in hLE inhibitory activity compared to peptide 6: relative to peptide 6
Method: The enzymatic activity was assayed with MeOSuc-AAPV-NA for hLE determination and Suc-AAPF-NA for hCG determination (both in 100 mM Hepes buffer, pH 7.4, containing 0.05% of the […] detergent Brij-35). The activities of the individual enzymatic fractions were 100% free from cross-contamination. […] The fractions containing hLE and hCG were dialyzed each against 0.1% pyridinium acetate, pH 5.3, divided into 20 aliquots, lyophilized, and stored at −20 ° C. until use.
(v) Inhibition experiments with hLE: Peptides were dissolved in 100 mM Hepes buffer pH 7.4 containing 0.1% Brij-35 with 10%. DMSO to yield 300 μM solutions, which were used to make further dilutions with the same buffer, and 80 μL aliquots were added in duplicates to 96-well plates. The substrate, 600 μM MeOSuc-AAPV-NA in the same buffer with 5% DMSO, was added to each well in addition to the blank wells, and the plate was placed in the plate reader equilibrated to 37 C (Dynateck MR-6000). Lyophilized aliquots of hLE were dissolved in 1600 μL of 100 mM Hepes buffer without DMSO, and 80 μL of the enzyme solution was added to the peptides and substrate to initiate the reaction. […] The final volume was 240 μL containing: 5% DMSO, 1-100 μM of peptide, 200 μM substrate, and 0.75 μg (˜25 picomol) enzyme.
(viii) Calculations: For hLE, V is determined by fitting a linear equation to the first 6 time-points (10 min) of the kinetics data using the least squares method. […] Several inhibitor concentration in duplicates and two control wells were used to fit a linear equation to graphs of Vo/Vi−1 vs. [I] for each inhibitor using the least squares method (8 data points for each inhibitor). From calculating the error in the slope of the equation, the relative error for Ki was deduced:
Ki={slope*(1+[S]/Km)}^−1because Ki=[I]*{(1+[S]/Km)*(Vo/Vi−1)}^−1.
The hLE inhibitory capability of CRP-derived peptides was evaluated by inhibiting the enzymatic cleavage of MeOSuc-AAPV-NA as described in Materials and Methods (section v).

fold decrease in hLE inhibitory activity compared to peptide 6	SMILES	hLE inhibitory activity (in words)	Ki
30 fold	CC[C@H](C)[C@H](NC(=O)CNC(=O)[C@H](Cc1ccc(O)cc1)NC(=O)[C@H](CO)NC(=O)[C@H](Cc1ccccc1)NC(=O)[C@@H](N)[C@@H](C)O)C(=O)N[C@@H](CC(=O)O)C(=O)N[C@@H](CCCCN)C(=O)N[C@@H](CO)C(=O)N[C@@H](Cc1c[nH]c2ccccc12)C(=O)N[C@@H](Cc1ccccc1)C(=O)N[C@H](C(=O)N[C@@H](CC(C)C)C(=O)N[C@H](C(=O)N[C@@H](CCC(=O)O)C(=O)O)[C@@H](C)CC)[C@@H](C)CC [Peptide 24, Thr-Phe-Ser-Tyr-Gly-Ile-Asp-Lys-Ser-Trp-Phe-Ile-Leu-Ile-Glu] (H-TFSYGIDKSWFILIE-OH; N-terminus and C-terminus assumed)		
10 fold	CC[C@H](C)[C@H](NC(=O)[C@H](CC(=O)O)NC(=O)[C@H](CCCCN)NC(=O)[C@H](CO)NC(=O)[C@H](Cc1c[nH]c2ccccc12)NC(=O)[C@H](Cc1ccccc1)NC(=O)[C@@H](NC(=O)[C@H](CC(C)C)NC(=O)[C@@H](NC(=O)[C@@H](N)CC(=O)O)[C@@H](C)CC)[C@@H](C)CC)C(=O)NCC(=O)N[C@@H](Cc1ccc(O)cc1)C(=O)N[C@@H](CO)C(=O)N[C@@H](Cc1ccccc1)C(=O)N[C@H](C(=O)O)[C@@H](C)O [Peptide 18, Asp-Ile-Leu-Ile-Phe-Trp-Ser-Lys-Asp-Ile-Gly-Tyr-Ser-Phe-Thr] (H-DILIFWSKDIGYSFT-OH; N-terminus and C-terminus assumed)		

The next lines start with the compound.

SMILES	fold decrease in hLE inhibitory activity compared to peptide 6	hLE inhibitory activity (in words)	Ki
CC[C@H](C)[C@H](NC(=O)[C@H](CC(=O)O)NC(=O)[C@@H](NC(=O)[C@H](CO)NC(=O)[C@H](Cc1c[nH]c2ccccc12)NC(=O)[C@H](Cc1ccccc1)NC(=O)[C@@H](NC(=O)[C@H](CC(C)C)NC(=O)[C@@H](NC(=O)[C@@H](N)CCC(=O)O)[C@@H](C)CC)[C@@H](C)CC)C(C)C)C(=O)O [Peptide 26, Glu-Ile-Leu-Ile-Phe-Trp-Ser-Val-Asp-Ile] (H-EILIFWSVDI-OH; N-terminus and C-terminus assumed)		slightly more potent than peptide 14	
CC[C@H](C)[C@H](NC(=O)[C@H](CC(=O)O)NC(=O)[C@H](CCCCN)NC(=O)[C@@H]1CCCN1C(=O)[C@H](Cc1c[nH]c2ccccc12)NC(=O)[C@H](Cc1ccccc1)NC(=O)[C@@H](NC(=O)[C@H](CC(C)C)NC(=O)[C@@H](NC(=O)[C@@H](N)CCC(=O)O)[C@@H](C)CC)[C@@H](C)CC)C(=O)NCC(=O)N[C@@H](Cc1ccc(O)cc1)C(=O)N[C@@H](CO)C(=O)N[C@@H](Cc1ccccc1)C(=O)N[C@H](C(=O)O)[C@@H](C)O [Peptide 19, Glu-Ile-Leu-Ile-Phe-Trp-Pro-Lys-Asp-Ile-Gly-Tyr-Ser-Phe-Thr] (H-EILIFWPKDIGYSFT-OH; N-terminus and C-terminus assumed)		two orders of magnitude loss of inhibitory activity	> 200 µM
CC[C@H](C)[C@H](NC(=O)[C@H](CC(=O)O)NC(=O)[C@H](C)NC(=O)[C@H](CO)NC(=O)[C@H](Cc1c[nH]c2ccccc12)NC(=O)[C@H](Cc1ccccc1)NC(=O)[C@@H](NC(=O)[C@H](CC(C)C)NC(=O)[C@@H](NC(=O)[C@@H](N)CCC(=O)O)[C@@H](C)CC)[C@@H](C)CC)C(=O)O [Peptide 25, Glu-Ile-Leu-Ile-Phe-Trp-Ser-Ala-Asp-Ile] (H-EILIFWSADI-OH; N-terminus and C-terminus assumed)		slightly more potent than peptide 14	3 ± 0.5 µM
